Assay results as given in patent US6042841A, “Cosmetic method of treating skin” (Unilever Home & Personal Care USA Division of Conopco, Inc., priority 1998, dated 2000).

What was measured:
Type in all cases: cell-based
decorin = assay: Dot blot assay for decorin synthesis in human dermal fibroblasts
Experimental: Primary human foreskin fibroblasts at passage 2 (P2) were seeded into 12-well plates at 10000 cells/cm^2 and maintained for 24 hours in an atmosphere of 5% carbon dioxide and 4% oxygen in Dulbeccos Modified Eagles Medium (DMEM) supplemented with 10% foetal calf serum. After this time the cells were washed with serum free DMEM and then incubated in fresh serum free DMEM for a further 60 hours. The fibroblast monolayers were then washed again with serum free DMEM. Test reagents and vehicle controls were added to the cells in triplicate in a final volume of 0.4 ml/well fresh serum free DMEM and incubated for a further 24 hours. This fibroblast conditioned medium was either analysed immediately or snap frozen in liquid nitrogen and stored at -70° C. for future analysis. The cells were then counted and data from the dot-blot analysis subsequently standardised to cell number.
Samples of conditioned medium from dermal fibroblasts treated with vehicle (as a control) or test reagents were supplemented with 20 mM dithiothreitol (1:10 dilution of 200 mM stock solution) and 0.1% sodium dodecylsulphate (1:100 dilution of 10% stock solution), mixed well and then incubated at 75° C. for 2 minutes. A standard for the assay was generated by serial dilution of neat fibroblast conditioned medium from fibroblasts seeded at 10000 cells/cm^2 in a 175 cm^2 flask and maintained in serum free DMEM as described above. Assay samples were subsequently applied in triplicate to a prewetted sheet of Immobilon-P transfer membrane using the 96-well Bio-Dot Apparatus from Bio-Rad as described in the manufacturers guidelines. Approximately 200 μl of medium was applied per well. […] Dot intensity was assessed by computer-assisted image analysis using the quantification tools in ImageQuant™, standardised to cell number and the effects of various test reagents on decorin and procollagen-I synthesis were determined relative to a vehicle treated control value of 100 arbitrary units.

keratinocytes = assay: Keratinocyte SDS viability assay (Neutral Red); details: vs 2 μg/ml SDS alone; 1 way ANOVA, p<0.05
Experimental: After incubating for 24 hours the medium was removed and the viability determined by the Neutral Red method.

ICAM = assay: ICAM-1 assay, PMA-induced ICAM production in human skin fibroblasts; details: for ICAM: N 4, p < 0.001 vs PMA-treated
Experimental: Intracellular adhesion molecules (ICAM) and PEG2 production by human skin fibroblasts can be induced by the inflammatory stimulus PMA (phorbal myristate acetate). PMA represents an external stressor which induces oxidative stress and inflammatory responses in cells. This model is used to model inflammation in vivo.
Primary human foreskin fibroblasts at passage 2 (P2) were seeded into 96-well plates at 10000 cells/well and maintained for 24 hours in an atmosphere of 5% carbon dioxide in Dulbeccos Modified Eagles Medium (DMEM) supplemented with 10% foetal calf serum. […] Phorbal myristate acetate (PMA) (Sigma) was added to the media and the cells incubated for a further 24 hours. […] The fibroblasts/media were then analysed as described below immediately or snap frozen in liquid nitrogen and stored at -70° C. for future analysis. The cells were then counted and data from the dot-blot analysis subsequently standardised to cell number.
ICAM-1 assay: Media were discarded and cells washed with Dulbecco PBS. To the washed cells, 150 μl 0.1% Triton X-100 (Sigma) was added for 3 minutes to extract ICAM from cell membrane. The extracts were transferred to Eppendoff centrifuge tubes and centrifuged at 1000 g for 2 min to remove cell debris. A volume of 100 μl supernatant was used for ICAM assay. The soluble ICAM-1 was assessed with commercially available immunoenzymometric assay kit (R&D Systems). Concentrations of ICAM-1 in the samples were determined based on parallelly running standard curve.

[1] = system: B16-F1 mouse melanoma cells; assay: Pigmentation assay (melanin in media)
Experimental: B16-F1 mouse melanoma cells (American Type Culture Collection, Maryland, USA) were maintained in 75 cm^2 culture flasks in RPMI 1640 medium (ICN-Flow, cat. no. 12-60-54) supplemented with L-glutamine (4 mM) and 10% foetal bovine serum (FBS) at 37° C. in a water saturated, 5% CO2 in air atmosphere. Cells were passaged twice weekly.
Subconfluent B16 cells were seeded in 96 well microtiter plates at a density of 5000 cells/well and cultured overnight in DMEM (Life Technologies, NY) containing 10% foetal bovine serum and 1% penicillin/streptomycin without phenol red at 37° C. under 5% CO2. After 24 hours, the media was replaced with fresh media containing the test materials or vehicle controls. Cells were incubated for 72 hours at which time melanin was visible in the control wells. Next, the melanin containing media from each well was transferred to a clean 96 well plate and quantified by reading the absorbance at 530 nm using a microplate spectrophotometer (Dynatech MR5000) and correcting for the baseline absorption of fresh medium. As the corrected absorption is proportional to the melanin concentration the percentage pigmentation for a skin lightening test substance can be calculated as: […]
where OD530 test and OD530 ref indicate the average corrected absorption of the medium from the wells with the test substance and that of the medium from the wells without the test substance. The percentage inhibition caused by the test substance is then 100 - % pigmentation.

## CCCCCCCCCCC/C=C\CCCCC(=O)O [Petroselinic Acid, petroselinic acid]
decorin; compared to the control
  decorin synthesis (in words): significantly upregulates
decorin; petroselinic acid 10 μM vs retinoic acid 1 μm (so in the source)
  magnitude of upregulation of decorin synthesis vs retinoic acid (in words): exceeds that of the bench-mark anti-aging dermal repair active, retinoic acid
keratinocytes
  Keratinocyte viability vs SDS alone (in words): significantly increased viability
ICAM; PMA + PA (0.1 uM)
  ICAM: 8.64 ± 0.89 ng/mL
ICAM; PMA + PA (1 uM)
  ICAM: 7.71 ± 0.66 ng/mL
ICAM; PMA + PA (10 uM)
  ICAM: 7.39 ± 0.14 ng/mL
ICAM; PMA + PA (100 uM)
  ICAM: 6.68 ± 1.35 ng/mL
ICAM; PMA-challenged
  production of ICAM (in words): decreases the production
[1]
  melanin production (in words): inhibits melanin production
[1]; Mus musculus, B16-F1, 0.01%, 72 hours, n = 4, ** (0.000)
  activity at 0.01 %: 79.5%
[1]; Mus musculus, B16-F1, 0.013%, 72 hours, n = 4, ** (0.000)
  activity at 0.013 %: 40.4%
[1]; Mus musculus, B16-F1, 0.02%, 72 hours, n = 4, ** (0.000)
  activity at 0.02 %: 55.3%
[1]; Mus musculus, B16-F1, 0.04%, 72 hours, n = 4, ** (0.000)
  activity at 0.04 %: 3.9%
[1]; Mus musculus, B16-F1, 0.1%, 72 hours, n = 4, ** (0.000)
  activity at 0.1 %: 19.3%
